Literature values, collected in US20020193323A1, “Compositions and methods for promoting a healthy cardiovascular system and enhancing blood flow” (priority 2000, published 2002).

Experiments:
[1] = test system: glutathione system; settings: selenium supplementation, through activation of the glutathione system
[2] = in vivo

For `[Se]` [selenium], the “reduced lipid peroxidation levels” value [1] is given as 50%.

For `CC1=C(/C=C/C(C)=C/C=C/C(C)=C/C=C/C=C(C)/C=C/C=C(C)/C=C/C2=C(C)CCCC2(C)C)C(C)(C)CCC1` [Beta-carotene], the “reduce risk of major coronary events” value [2] is listed as 51%.
